Assay results: patent US11401255B2, “Small molecule activators of Parkin enzyme function” (Mayo Foundation for Medical Education and Research, priority 2016, dated 2022)

Key:
[1] = test system: CYP450 panel (1A2, 2C9, 2C19, 2D6, 3A4); test: P450-Glo CYP450 inhibition, whole panel; format: in vitro ADME; conditions: 10 μM
Description: All test points were performed in quadruplicates. Control membranes (without CYPs) represented the Negative control (baseline). DMSO final concentration was 0.25%.

Parkin = Parkin (Homo sapiens (Human), UniProt O60260); test: In vitro E2 discharge assay; format: biochemical; conditions: Ub-loaded UbcH7, presence of PINK1, vs DMSO
Description: FIGS. 15A-15H show Parkin activation in primary fibroblasts, neuronal cells and in vitro. Positive control (PC) cells were treated with DMSO and 10 μM of CCCP. Negative control (NC) cells were treated with 3.5 μM CCCP, some cells were left untreated (−). […] Vinculin was used as loading control. […] FIG. 15C: Human fibroblasts were directly converted to neurons and treated as in FIG. 15B. […] Beta III tubulin confirmed successful conversion of fibroblasts to iNeurons. FIG. 15D: Rat PC12 cells were treated as in FIG. 15A. Western blots show enhanced ubiquitylation of MFN2 and TOM70, and robust pSer65-Ub induction similar to PC, but not NC cells. FIG. 15E: In vitro E2 discharge assay. Recombinant Parkin was pre-incubated with compound 4 or DMSO as control and was mixed to Ub-loaded UbcH7. […] Control reactions were performed without PINK1 or Parkin. FIG. 15F: In vitro assay with isolated mitochondria from untreated or CCCP-treated HeLa cells lacking Parkin. Mitochondrial preparations were mixed with recombinant Parkin, E1, UbcH7, ATP and either compound 4 or DMSO as a control and incubated for the indicated times. […] Control samples were incubated in reaction mix without Parkin. […]
As the first readout for Parkin activity, E2 Ub discharge assays were performed, complementary to the Ub-charging assays of Parkin C431S in cells. […]

HeLa mtKeima cells = test: Mitophagy assay (mtKeima HCI); format: cell-based, human; conditions: 5 μM, low-dose CCCP
Description: HCI in 384-well plates was used to calculate the ratio of acidic to neutral mtKeima. Upon treatment with 10 μM CCCP, there was significant increase of the mtKeima ratio. Pre-treatment with compound 4 (dashed line, here shown 5 μM of compound 4) induced this also at low-dose CCCP concentrations while low dose CCCP alone (solid line) had only little effect on the ratio of acidic to neutral mtKeima.
HeLa mtKeima cells were pre-treated for 2 h with 12 different doses of Compounds 1, 2, 3, 4, and 31 before low-dose CCCP was added (3 μM final concentration). 10 μM CCCP was added to positive control wells. Cells were imaged live after 4 h and 8 h of CCCP. Values were normalized to the positive and negative (3 μM CCCP) control values for each time point. Curve fitting was used to calculate EC50 values.
To confirm mitophagy, HeLa cells expressing the pH-sensitive, mitochondria-targeted reporter mitoKeima46 were employed. A characteristic shift in the excitation wavelength of mitoKeima upon lysosomal fusion was used to determine mitochondrial turnover using […]. For mitoKeima experiments (Kim et al., Mol. Neurodegen. (2016) 11:55), cells were seeded in DMEM media lacking phenol red […]. Hoechst counterstain was added as a 5× stock in 5 μL volume. […] Segmentation of cells was performed as above and for each region of interest the ratio of acidic and neutral mitoKeima was calculated. […]

Chain of Parkin (O60260 whole entry): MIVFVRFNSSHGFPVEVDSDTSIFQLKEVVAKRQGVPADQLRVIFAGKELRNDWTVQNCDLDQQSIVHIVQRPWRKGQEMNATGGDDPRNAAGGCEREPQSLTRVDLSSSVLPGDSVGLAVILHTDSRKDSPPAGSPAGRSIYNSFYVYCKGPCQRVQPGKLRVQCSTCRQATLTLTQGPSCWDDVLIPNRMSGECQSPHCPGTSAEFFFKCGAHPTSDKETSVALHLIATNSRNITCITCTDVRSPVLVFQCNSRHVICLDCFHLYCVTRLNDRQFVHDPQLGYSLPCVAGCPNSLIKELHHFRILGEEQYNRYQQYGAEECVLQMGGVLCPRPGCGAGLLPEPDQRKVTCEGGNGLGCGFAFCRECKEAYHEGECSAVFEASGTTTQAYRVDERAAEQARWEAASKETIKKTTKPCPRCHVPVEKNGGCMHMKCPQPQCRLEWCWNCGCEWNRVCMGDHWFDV

SMILES	inhibition of all 5 tested CYP450 [1]	E2 discharge (Parkin)	mitophagy flux (ratio of acidic to neutral mtKeima) (HeLa mtKeima cells)
CC(C)(C)Sc1ccc(NC(=O)Cn2ccnc2)cc1 [Compound 3]	very high inhibition		
O=C(Cn1ccnc1-c1ccccn1)Nc1ccc(-c2ccccc2)cc1 [Compound 4]	did not show a significant inhibition	slightly more E2 discharge	enhanced mitophagy flux
